Results: PubChem BioAssay AID248 (DTP/NCI, 2004)
“And” between values parts separate entries of the source, which are not always exact repeats. Equal values may be shown once. Toxic doses and inconclusive results are not listed.

Tested on: L1210 leukemia ip in BDF1 mice, survival T/C
Experiment: NCI In Vivo Anticancer Drug Screen. Data for tumor model L1210 Leukemia (intraperitoneal) in B6D2F1 (BDF1) mice
Settings: endpoint: mean survival time, higher = longer survival
Outline: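 Tumor was transplanted into mice, which were then dosed with test compound or vehicle alone. Survival was recorded for each group, and the treated figure was expressed relative to the control figure.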

SMILES: O=C(NP(=O)(N1CC1)N1CC1)c1cc(I)ccc1I
- T/C (dose: 1.0 mg/kg/injection, schedule: Q01DX001 (ip), vehicle: saline with Tween-80): 99 % of control
- T/C (dose: 1.0 mg/kg/injection, schedule: Q01DX001 (ip), vehicle: saline): 95 % of control and 98 % of control
- T/C (dose: 1.0 mg/kg/injection, schedule: Q01DX001 (oral), vehicle: saline with Tween-80): 106 % of control
- T/C (dose: 1.0 mg/kg/injection, schedule: Q01DX001 (oral), vehicle: saline): 97 % of control
- T/C (dose: 1.0 mg/kg/injection, schedule: Q01DX009 (ip), vehicle: saline with Tween-80): 103 % of control
- T/C (dose: 1.0 mg/kg/injection, schedule: Q01DX009 (ip), vehicle: saline): 97 % of control
- T/C (dose: 1.0 mg/kg/injection, schedule: Q04DX003 (ip), vehicle: saline with Tween-80): 107 % of control
- T/C (dose: 1.0 mg/kg/injection, schedule: Q04DX003 (ip), vehicle: saline): 104 % of control and 111 % of control
- T/C (dose: 2.0 mg/kg/injection, schedule: Q01DX001 (ip), vehicle: saline with Tween-80): 93 % of control
- T/C (dose: 2.0 mg/kg/injection, schedule: Q01DX001 (ip), vehicle: saline): 100 % of control and 110 % of control
- T/C (dose: 2.0 mg/kg/injection, schedule: Q01DX001 (oral), vehicle: saline with Tween-80): 100 % of control
- T/C (dose: 2.0 mg/kg/injection, schedule: Q01DX001 (oral), vehicle: saline): 94 % of control
- T/C (dose: 2.0 mg/kg/injection, schedule: Q01DX009 (ip), vehicle: saline with Tween-80): 105 % of control
- T/C (dose: 2.0 mg/kg/injection, schedule: Q04DX003 (ip), vehicle: saline): 97 % of control and 111 % of control
- T/C (dose: 4.0 mg/kg/injection, schedule: Q01DX001 (ip), vehicle: saline with Tween-80): 97 % of control
- T/C (dose: 4.0 mg/kg/injection, schedule: Q01DX001 (ip), vehicle: saline): 100 % of control and 108 % of control
- T/C (dose: 4.0 mg/kg/injection, schedule: Q01DX001 (oral), vehicle: saline with Tween-80): 107 % of control
- T/C (dose: 4.0 mg/kg/injection, schedule: Q01DX001 (oral), vehicle: saline): 92 % of control
- T/C (dose: 4.0 mg/kg/injection, schedule: Q01DX009 (ip), vehicle: saline with Tween-80): 101 % of control
- T/C (dose: 4.0 mg/kg/injection, schedule: Q04DX003 (ip), vehicle: saline with Tween-80): 101 % of control
- T/C (dose: 4.0 mg/kg/injection, schedule: Q04DX003 (ip), vehicle: saline): 97 % of control
- T/C (dose: 8.0 mg/kg/injection, schedule: Q01DX001 (ip), vehicle: saline with Tween-80): 101 % of control
- T/C (dose: 8.0 mg/kg/injection, schedule: Q01DX001 (ip), vehicle: saline): 99 % of control and 118 % of control
- T/C (dose: 8.0 mg/kg/injection, schedule: Q01DX001 (oral), vehicle: saline with Tween-80): 101 % of control
- T/C (dose: 8.0 mg/kg/injection, schedule: Q01DX001 (oral), vehicle: saline): 90 % of control
- T/C (dose: 8.0 mg/kg/injection, schedule: Q01DX009 (ip), vehicle: saline with Tween-80): 121 % of control
- T/C (dose: 8.0 mg/kg/injection, schedule: Q04DX003 (ip), vehicle: saline with Tween-80): 115 % of control
- T/C (dose: 8.0 mg/kg/injection, schedule: Q04DX003 (ip), vehicle: saline): 102 % of control
- T/C (dose: 16.0 mg/kg/injection, schedule: Q01DX001 (ip), vehicle: saline with Tween-80): 109 % of control
- T/C (dose: 16.0 mg/kg/injection, schedule: Q01DX001 (ip), vehicle: saline): 100 % of control and 121 % of control
- T/C (dose: 16.0 mg/kg/injection, schedule: Q01DX001 (oral), vehicle: saline with Tween-80): 102 % of control
- T/C (dose: 16.0 mg/kg/injection, schedule: Q01DX001 (oral), vehicle: saline): 97 % of control
- T/C (dose: 16.0 mg/kg/injection, schedule: Q04DX003 (ip), vehicle: saline): 104 % of control
- T/C (dose: 32.0 mg/kg/injection, schedule: Q01DX001 (ip), vehicle: saline with Tween-80): 112 % of control
- T/C (dose: 32.0 mg/kg/injection, schedule: Q01DX001 (ip), vehicle: saline): 99 % of control and 110 % of control
- T/C (dose: 32.0 mg/kg/injection, schedule: Q01DX001 (oral), vehicle: saline with Tween-80): 101 % of control
- T/C (dose: 32.0 mg/kg/injection, schedule: Q01DX001 (oral), vehicle: saline): 96 % of control
- T/C (dose: 32.0 mg/kg/injection, schedule: Q01DX009 (ip), vehicle: saline with Tween-80): 155 % of control
- T/C (dose: 32.0 mg/kg/injection, schedule: Q01DX009 (ip), vehicle: saline): 162 % of control
- T/C (dose: 64.0 mg/kg/injection, schedule: Q01DX001 (ip), vehicle: saline with Tween-80): 111 % of control
- T/C (dose: 64.0 mg/kg/injection, schedule: Q01DX001 (ip), vehicle: saline): 105 % of control and 116 % of control
- T/C (dose: 64.0 mg/kg/injection, schedule: Q01DX001 (oral), vehicle: saline with Tween-80): 98 % of control
- T/C (dose: 64.0 mg/kg/injection, schedule: Q01DX001 (oral), vehicle: saline): 100 % of control
- T/C (dose: 64.0 mg/kg/injection, schedule: Q01DX009 (ip), vehicle: saline with Tween-80): 112 % of control
- T/C (dose: 64.0 mg/kg/injection, schedule: Q01DX009 (ip), vehicle: saline): 183 % of control
- T/C (dose: 128.0 mg/kg/injection, schedule: Q01DX001 (ip), vehicle: saline with Tween-80): 123 % of control
- T/C (dose: 128.0 mg/kg/injection, schedule: Q01DX001 (ip), vehicle: saline): 114 % of control
- T/C (dose: 128.0 mg/kg/injection, schedule: Q01DX001 (oral), vehicle: saline with Tween-80): 109 % of control
- T/C (dose: 128.0 mg/kg/injection, schedule: Q01DX001 (oral), vehicle: saline): 93 % of control
- T/C (dose: 128.0 mg/kg/injection, schedule: Q01DX009 (ip), vehicle: saline): 95 % of control
- T/C (dose: 128.0 mg/kg/injection, schedule: Q04DX003 (ip), vehicle: saline with Tween-80): 176 % of control
- T/C (dose: 128.0 mg/kg/injection, schedule: Q04DX003 (ip), vehicle: saline): 151 % of control and 159 % of control
- T/C (dose: 256.0 mg/kg/injection, schedule: Q01DX001 (ip), vehicle: saline): 124 % of control
- T/C (dose: 256.0 mg/kg/injection, schedule: Q01DX001 (oral), vehicle: saline): 120 % of control
- T/C (dose: 256.0 mg/kg/injection, schedule: Q04DX003 (ip), vehicle: saline with Tween-80): 105 % of control
- T/C (dose: 256.0 mg/kg/injection, schedule: Q04DX003 (ip), vehicle: saline): 164 % of control
- T/C (dose: 512.0 mg/kg/injection, schedule: Q01DX001 (ip), vehicle: saline with Tween-80): 99 % of control
- T/C (dose: 512.0 mg/kg/injection, schedule: Q01DX001 (oral), vehicle: saline): 122 % of control
- T/C (dose: 512.0 mg/kg/injection, schedule: Q04DX003 (ip), vehicle: saline): 100 % of control
